Counter-ions that a name gives are not always drawn.
What was measured:
Solanum nigrum = assay: Test H weed control, field plots; type: in vivo; parameters: concentration or dose not given beside the values; conditions: 36 days after treatment; g a.i./ha: tribenuron-methyl 22.5, metsulfuron-methyl 6, ethametsulfuron-methyl 16, imazapyr isopropylamine salt 15, aclonifen 1200
From the text: (§1) Field plots (2 m×5 m) were tilled to remove weed cover and then seeded in rows with the following weeds: Capsella bursa pastoris, Atriplex patula, Chenopodium album, Stellaria media, Mecurialis annua, Polygonum persicaria, Amaranthus retroflexus, Polygonum convolvulus, Polygonum aviculare, Viola arvensis, Matricaria inodora, Anagallis arvensis, Sinapis arvensis, Setaria viridis, Solanum nigrum and Echinochloa crusgalli. After 21 days from sowing, at which time the weeds had reached the 2- to 6-leaf stage, herbicide treatments were applied to the plots according to a complete randomized block design, with each herbicide treatment triply replicated. The herbicides were sprayed using standard flat fan nozzles moved perpendicular to the sown lines using water spray volumes of about 296 L/ha.
(§2) Assessments of weed control were made by visual inspection 36 days after herbicide treatment. A visual rating system was used based on a percentage scale from 0 to 100% compared to an adjacent untreated control plot. On this scale 0 represents no visual differences relative to an untreated control and 100 represents complete control of the given weed species.

Echinochloa crus-galli = assay: Test H weed control, field plots; type: in vivo; parameters: concentration or dose not given beside the values; conditions: 36 days after treatment; g a.i./ha: tribenuron-methyl 22.5, metsulfuron-methyl 6, ethametsulfuron-methyl 16, imazapyr isopropylamine salt 15, aclonifen 1200
From the text: as §1, §2

Setaria viridis = assay: Test H weed control, field plots; type: in vivo; parameters: concentration or dose not given beside the values; conditions: 36 days after treatment; g a.i./ha: tribenuron-methyl 22.5, metsulfuron-methyl 6, ethametsulfuron-methyl 16, imazapyr isopropylamine salt 15, aclonifen 1200
From the text: as §1, §2

Atriplex patula = assay: Test H weed control, field plots; type: in vivo; parameters: concentration or dose not given beside the values; conditions: 36 days after treatment; g a.i./ha: tribenuron-methyl 22.5, metsulfuron-methyl 6, ethametsulfuron-methyl 16, imazapyr isopropylamine salt 15, aclonifen 1200
From the text: as §1, §2

Polygonum convolvulus = assay: Test H weed control, field plots; type: in vivo; parameters: concentration or dose not given beside the values; conditions: 36 days after treatment; g a.i./ha: tribenuron-methyl 22.5, metsulfuron-methyl 6, ethametsulfuron-methyl 16, imazapyr isopropylamine salt 15, aclonifen 1200
From the text: as §1, §2

Matricaria inodora = assay: Test H weed control, field plots; type: in vivo; parameters: concentration or dose not given beside the values; conditions: 36 days after treatment; g a.i./ha: tribenuron-methyl 22.5, metsulfuron-methyl 6, ethametsulfuron-methyl 16, imazapyr isopropylamine salt 15, aclonifen 1200
From the text: as §1, §2

Anagallis arvensis = assay: Test H weed control, field plots; type: in vivo; parameters: concentration or dose not given beside the values; conditions: 36 days after treatment; g a.i./ha: tribenuron-methyl 22.5, metsulfuron-methyl 6, ethametsulfuron-methyl 16, imazapyr isopropylamine salt 15, aclonifen 1200
From the text: as §1, §2

Viola arvensis = assay: Test H weed control, field plots; type: in vivo; parameters: concentration or dose not given beside the values; conditions: 36 days after treatment; g a.i./ha: tribenuron-methyl 22.5, metsulfuron-methyl 6, ethametsulfuron-methyl 16, imazapyr isopropylamine salt 15, aclonifen 1200
From the text: as §1, §2

Polygonum aviculare = assay: Test H weed control, field plots; type: in vivo; parameters: concentration or dose not given beside the values; conditions: 36 days after treatment; g a.i./ha: tribenuron-methyl 22.5, metsulfuron-methyl 6, ethametsulfuron-methyl 16, imazapyr isopropylamine salt 15, aclonifen 1200
From the text: as §1, §2

Capsella bursa pastoris = assay: Test H weed control, field plots; type: in vivo; parameters: concentration or dose not given beside the values; conditions: 36 days after treatment; g a.i./ha: tribenuron-methyl 22.5, metsulfuron-methyl 6, ethametsulfuron-methyl 16, imazapyr isopropylamine salt 15, aclonifen 1200
From the text: as §1, §2

Sinapis arvensis = assay: Test H weed control, field plots; type: in vivo; parameters: concentration or dose not given beside the values; conditions: 36 days after treatment; g a.i./ha: tribenuron-methyl 22.5, metsulfuron-methyl 6, ethametsulfuron-methyl 16, imazapyr isopropylamine salt 15, aclonifen 1200
From the text: as §1, §2

Amaranthus retroflexus = assay: Test H weed control, field plots; type: in vivo; parameters: concentration or dose not given beside the values; conditions: 36 days after treatment; g a.i./ha: tribenuron-methyl 22.5, metsulfuron-methyl 6, ethametsulfuron-methyl 16, imazapyr isopropylamine salt 15, aclonifen 1200
From the text: as §1, §2

Mercurialis annua = assay: Test H weed control, field plots; type: in vivo; parameters: concentration or dose not given beside the values; conditions: 36 days after treatment; g a.i./ha: tribenuron-methyl 22.5, metsulfuron-methyl 6, ethametsulfuron-methyl 16, imazapyr isopropylamine salt 15, aclonifen 1200
From the text: as §1, §2

Polygonum persicaria = assay: Test H weed control, field plots; type: in vivo; parameters: concentration or dose not given beside the values; conditions: 36 days after treatment; g a.i./ha: tribenuron-methyl 22.5, metsulfuron-methyl 6, ethametsulfuron-methyl 16, imazapyr isopropylamine salt 15, aclonifen 1200
From the text: as §1, §2

Chenopodium album = assay: Test H weed control, field plots; type: in vivo; conditions: 36 days after treatment; g a.i./ha: tribenuron-methyl 22.5, metsulfuron-methyl 6, ethametsulfuron-methyl 16, imazapyr isopropylamine salt 15, aclonifen 1200
From the text: as §1, §2

Stellaria media = assay: Test H weed control, field plots; type: in vivo; conditions: 36 days after treatment; g a.i./ha: tribenuron-methyl 22.5, metsulfuron-methyl 6, ethametsulfuron-methyl 16, imazapyr isopropylamine salt 15, aclonifen 1200
From the text: as §1, §2

M5M7 = assay: Test B greenhouse phytotoxicity, M5M7; type: in vivo, sunflower; conditions: M5M7; 15 g a.i./ha post-emergence 4-leaf stage
Protocol: (§3) A greenhouse experiment was conducted to evaluate the spectrum of tolerance of three homozygous resistant mutants to various herbicides inhibiting acetolactate synthase (ALS) as their mode of action. The inbred lines tested were the 5th generation self-pollinated maintainers, M5M7, M5M11 and M5M12, as well as the 4th generation male sterile back-crosses BC4-M5M7, BC4-M5M11 and BC4-M5M12. Treatments of formulated herbicides were applied post-emergence at the 4-leaf stage. Application rates of the test herbicides were chosen to coincide with the rates commonly used in the crops for which they are registered. The application rate of imazethapyr was chosen to match the rate recommended to control parasitic weeds in sunflowers by L. García-Torres et al., Weed Technology 1995, 9, 819-824. Wild type H89 inbred sunflower was not included in this test, because the many of the tested herbicides are known to be efficacious in controlling volunteer sunflower as a weed. Treatments were replicated twice. […] A rating of 0% phytotoxicity means no crop injury.

BC4-M5M12 = assay: Test B greenhouse phytotoxicity, BC4-M5M12; type: in vivo, sunflower; conditions: BC4-M5M12; 15 g a.i./ha post-emergence 4-leaf stage
Protocol: as §3

BC4-M5M11 = assay: Test B greenhouse phytotoxicity, BC4-M5M11; type: in vivo, sunflower; conditions: BC4-M5M11; 15 g a.i./ha post-emergence 4-leaf stage
Protocol: as §3

M5M12 = assay: Test B greenhouse phytotoxicity, M5M12; type: in vivo, sunflower; conditions: M5M12; 15 g a.i./ha post-emergence 4-leaf stage
Protocol: as §3

BC4-M5M7 = assay: Test B greenhouse phytotoxicity, BC4-M5M7; type: in vivo, sunflower; conditions: BC4-M5M7; 15 g a.i./ha post-emergence 4-leaf stage
Protocol: as §3

[1] = system: homozygous progeny of the three mutant sources; type: in vivo, sunflower; conditions: Test B application rates, post-emergence
Protocol: as §3

M5M11 = assay: Test B greenhouse phytotoxicity, M5M11; type: in vivo, sunflower; conditions: M5M11; 15 g a.i./ha post-emergence 4-leaf stage
Protocol: as §3

[2] = system: BC4-M5M12 × PHA155 hybrid; assay: Test E injury to sunflower hybrid; type: in vivo; conditions: in vivo
Protocol: (§4) Based on the results from Test D, a modified protocol was developed to include three timings of post-emergence treatment. The hybrid BC4-M5M12 (female parent)×PHA155 restorer line (male parent) described in Test C was used in this test. Various herbicide programs were tested using three replications. […] Seed coatings of these formulated herbicides were applied to 6 kg of seeds in such amount that considering the distribution of the coated seeds in each pot, the herbicide active ingredient (a.i.) application rates per hectare were as indicated.
(§5) The treatments were applied similar to the methods described for Test D. Pre-emergence applications were broadcast only, not soil incorporated. For pre-emergence application, the pots were sprayed using the high rates of the herbicides two days after sowing the sunflower seeds. Post-emergence treatments were applied at the 4-6 leaf stage of sunflower (corresponding to early stage of Orobanche attachment; identified as “T1”), the 6-8 leaf stage of sunflower (corresponding to the mid stage of Orobanche attachment; nodules <5 mm diameter; identified as “T2”) and 8-12 leaf stage of sunflower (corresponding to late stage of Orobanche attachment; identified as “T3”). The mid-stage applications included the high as well as low application rates of each herbicide.
(§6) For comparison were also included in this test other acetolactate synthase-inhibiting herbicides reported in the literature as giving good weed control of Orobanche (L. García-Torres et al., Weed Research 1994, 34, 395-402; L. García-Torres et al., Weed Technology 1995, 9, 819-824; J. Hershenhorn et al., Weed Technology 1998, 12, 108-114).

[3] = system: Orobanche cumana (Race F); assay: Test F sequential application to control Orobanche cumana; type: in vivo; conditions: post-emergence T3 15 g a.i./ha
Protocol: A greenhouse experiment was performed to identify the best sequential program compared to straight application of tribenuron-methyl or metsulfuron-methyl for control of Orobanche cumana (Race F). The dose range for optimum efficacy was also studied. Both herbicides were used as formulated compositions. […] BC4-M5M7×PHA155 is referred to below as “Hybrid 7”, and BC4-M5M12×PHA155 is referred to below as “Hybrid 12”.
Seed coating treatment was performed as described for Test D. Post-emergence treatments were applied at the 2-4 leaf stage of sunflower (corresponding to early stage of Orobanche attachment; identified as “T1”), the 6 leaf stage of sunflower (corresponding to the mid stage of Orobanche attachment; nodules <5 mm diameter; identified as “T2”) and 8 leaf stage of sunflower (corresponding to late stage of Orobanche attachment; identified as “T3”).
The efficacy was evaluated visually as described for Test D except that the efficacy was assessed ten days later than for Tests D and E. The later evaluation allowed observing any reduction of efficacy due to late Orobanche emergence or re-growth of treated nodules. Efficacy in controlling Orobanche attached to roots was evidenced by nodules comprising black necrotic tissues with no apparent active meristematic area. These nodules could be easily crushed between fingers.

Orobanche cumana = assay: Test E control of Orobanche cumana in resistant sunflower hybrid; type: in vivo
Protocol: The effect of the various treatments was evaluated 35 days after sowing. The sunflower roots were cleaned by washing in water, and the presence of Orobanche nodules was determined visually and by weighing root wet mass in comparison to check plants free of Orobanche infestation. […] The nodules caused by Orobanche increased root weight, and a correlation (r=0.7) was found between visual scores and weight measurements. Thus the weighing technique could be used to corroborate visual efficacy scorings. Orobanche emergence was also scored but found to be less useful to evaluate treatment efficiency at the evaluation timing of this test.
as §4, §5, §6

Nc1c([N+](=O)[O-])ccc(Oc2ccccc2)c1Cl [Aclonifen, aclonifen]
weed control, visual rating: Solanum nigrum (Solanum nigrum): 20% | weed control, visual rating: Echinochloa crus-galli (Echinochloa crus-galli): 0% | weed control, visual rating: Setaria viridis (Setaria viridis): 40% | weed control, visual rating: Atriplex patula (Atriplex patula): 0% | weed control, visual rating: Polygonum convolvulus (Polygonum convolvulus): 23% | weed control, visual rating: Matricaria inodora (Matricaria inodora): 0% | weed control, visual rating: Anagallis arvensis (Anagallis arvensis): 100% | weed control, visual rating: Viola arvensis (Viola arvensis): 57% | weed control, visual rating: Polygonum aviculare (Polygonum aviculare): 30% | weed control, visual rating: Capsella bursa pastoris (Capsella bursa pastoris): 100% | weed control, visual rating: Sinapis arvensis (Sinapis arvensis): 100% | weed control, visual rating: Amaranthus retroflexus (Amaranthus retroflexus): 40% | weed control, visual rating: Mercurialis annua (Mercurialis annua): 50% | weed control, visual rating: Polygonum persicaria (Polygonum persicaria): 70% | weed control, visual rating: Chenopodium album (Chenopodium album): 100% | weed control, visual rating: Stellaria media (Stellaria media): 100%

CCOc1nc(NC)nc(NC(=O)NS(=O)(=O)c2ccccc2C(=O)OC)n1 [Ethametsulfuron-methyl, ethametsulfuron-methyl]
Maximum Phytotoxicity (M5M7): 10% | Maximum Phytotoxicity (BC4-M5M12): 0% | Maximum Phytotoxicity (BC4-M5M11): 10% | Maximum Phytotoxicity (M5M12): 0% | weed control, visual rating: Solanum nigrum (Solanum nigrum): 70% | weed control, visual rating: Echinochloa crus-galli (Echinochloa crus-galli): 33% | weed control, visual rating: Setaria viridis (Setaria viridis): 0% | weed control, visual rating: Atriplex patula (Atriplex patula): 0% | weed control, visual rating: Polygonum convolvulus (Polygonum convolvulus): 0% | weed control, visual rating: Matricaria inodora (Matricaria inodora): 67% | weed control, visual rating: Anagallis arvensis (Anagallis arvensis): 100% | weed control, visual rating: Viola arvensis (Viola arvensis): 0% | weed control, visual rating: Polygonum aviculare (Polygonum aviculare): 0% | weed control, visual rating: Capsella bursa pastoris (Capsella bursa pastoris): 100% | weed control, visual rating: Sinapis arvensis (Sinapis arvensis): 97% | weed control, visual rating: Amaranthus retroflexus (Amaranthus retroflexus): 82% | weed control, visual rating: Mercurialis annua (Mercurialis annua): 0% | weed control, visual rating: Polygonum persicaria (Polygonum persicaria): 0% | Maximum Phytotoxicity (BC4-M5M7): 5% | weed control, visual rating: Chenopodium album (Chenopodium album): 0% | weed control, visual rating: Stellaria media (Stellaria media): 79% | tolerance of the mutants [1]: extremely resistant | Maximum Phytotoxicity (M5M11): 0%

CC(C)C1(C)N=C(c2ncccc2C(=O)O)NC1=O (stereo not shown) [Imazapyr, isopropylamine salt, Imazapyr]
Injury [2]: 0% | sunflower phytotoxicity [2]: transitory phytotoxicity symptoms | weed control, visual rating: Solanum nigrum (Solanum nigrum): 100% | weed control, visual rating: Echinochloa crus-galli (Echinochloa crus-galli): 27% | weed control, visual rating: Setaria viridis (Setaria viridis): 93% | weed control, visual rating: Atriplex patula (Atriplex patula): 85% | weed control, visual rating: Polygonum convolvulus (Polygonum convolvulus): 94% | weed control, visual rating: Matricaria inodora (Matricaria inodora): 43% | weed control, visual rating: Anagallis arvensis (Anagallis arvensis): 100% | weed control, visual rating: Viola arvensis (Viola arvensis): 0% | weed control, visual rating: Polygonum aviculare (Polygonum aviculare): 0% | weed control, visual rating: Capsella bursa pastoris (Capsella bursa pastoris): 100% | weed control, visual rating: Sinapis arvensis (Sinapis arvensis): 100% | weed control, visual rating: Amaranthus retroflexus (Amaranthus retroflexus): 84% | weed control, visual rating: Mercurialis annua (Mercurialis annua): 47% | weed control, visual rating: Polygonum persicaria (Polygonum persicaria): 100% | weed control, visual rating: Chenopodium album (Chenopodium album): 87% | weed control, visual rating: Stellaria media (Stellaria media): 100% | % Control in Hybrid 7 [3]: 97% | % Control in Hybrid 12 [3]: 97% | relative efficacy in controlling Orobanche (Orobanche cumana; Test E rates, metsulfuron-methyl compared with tribenuron-methyl): less efficacious in controlling Orobanche | Control (Orobanche cumana; post-emergence 15 g a.i./ha at T3): 72%
